According to patent publication US11274083B2, “Substituted thiophenyl uracils, salts thereof and the use thereof as herbicidal agents” (Syngenta Crop Protection AG, priority 2017, dated 2022):

Assays:
Format in all cases: in vivo
Setaria viridis [1] = test: Herbicidal action pre-emergence, greenhouse pot test; conditions: application rate 320 g/ha
From the text: (§1) Seeds of mono- and dicotyledonous weeds and crop plants were laid out in plastic or organic plant pots and covered with soil. The compounds of the invention formulated in the form of wettable powders (WP) or as emulsion concentrates (EC) were then applied to the surface of the covering soil as an aqueous suspension or emulsion with addition of 0.5% additive at a water application rate equivalent to 600 L/ha. After the treatment, the pots were placed in a greenhouse and kept under good growth conditions for the test plants. After about 3 weeks, the efficacy of the preparations was scored visually as a percentage by comparison with untreated controls. For example, 100% efficacy=plants have died. 0% efficacy=like control plants. Tables B1 to B17 below show the efficacies of selected compounds of the general formula (I) according to tables I.1 to I.50 on various harmful plants and an application rate corresponding to 320 g/ha or lower that were obtained by the aforementioned trial method.

Stellaria media [2] = test: as above; conditions: application rate 320 g/ha
From the text: as §1

Echinochloa crus-galli [3] = test: as above; conditions: application rate 320 g/ha
From the text: as §1

Hordeum murinum = test: as above; conditions: application rate 320 g/ha
From the text: as §1

Lolium rigidum [4] = test: as above; conditions: application rate 320 g/ha
From the text: as §1

Viola tricolor [5] = test: as above; conditions: application rate 320 g/ha
From the text: as §1

Abutilon theophrasti [6] = test: as above; conditions: application rate 320 g/ha
From the text: as §1

Veronica persica [7] = test: as above; conditions: application rate 320 g/ha
From the text: as §1

Avena fatua = test: as above; conditions: application rate 320 g/ha
From the text: as §1

Pharbitis purpurea [8] = test: as above; conditions: application rate 320 g/ha
From the text: as §1

Amaranthus retroflexus [9] = test: as above
From the text: as §1

Polygonum convolvulus [10] = test: as above; conditions: application rate 320 g/ha
From the text: as §1

Zea mays = test: Crop compatibility post-emergence, greenhouse pot test
Description: (§2) Seeds of mono- and dicotyledonous weed plants and crop plants were laid out in sandy loam soil in plastic or wood-fiber pots, covered with soil and grown under controlled growth conditions in a greenhouse. 2 to 3 weeks after sowing, the trial plants were treated at the one-leaf stage. The compounds of the invention formulated in the form of wettable powders (WP) or as emulsion concentrates (EC) were then sprayed onto the green parts of the plant as an aqueous suspension or emulsion with addition of 0.5% additive at a water application rate equivalent to 600 L/ha. After the trial plants had stood for about 3 weeks in the greenhouse, under optimal growth conditions, the effect of the preparations was scored visually by comparison with untreated controls. For example, 100% efficacy=plants have died, 0% efficacy=like control plants.
(§3) Crop plant compatibilities were also scored correspondingly.
(§4) The effects observed are reported here on selected crop plants by comparison, with the untreated controls (values in %).

Triticum aestivum = test: as above
Description: as §2, §3, §4

Oryza sativa = test: as above
Description: as §2, §3, §4

Setaria viridis [11] = test: Herbicidal action post-emergence, greenhouse pot test
Description: as §2, with “plants. Tables A1 to A16 below show the efficacies of selected compounds of the general formula (I) according to tables I.1 to I.50 on various harmful plants and an application rate corresponding to 80 g/ha or lower that were obtained by the aforementioned trial method.” for “plants.”

Stellaria media [12] = test: as above
Description: as §2, with “plants. Tables A1 to A16 below show the efficacies of selected compounds of the general formula (I) according to tables I.1 to I.50 on various harmful plants and an application rate corresponding to 80 g/ha or lower that were obtained by the aforementioned trial method.” for “plants.”

Echinochloa crus-galli [13] = test: as above
Description: as §2, with “plants. Tables A1 to A16 below show the efficacies of selected compounds of the general formula (I) according to tables I.1 to I.50 on various harmful plants and an application rate corresponding to 80 g/ha or lower that were obtained by the aforementioned trial method.” for “plants.”

Alopecurus myosuroides [14] = test: as above; conditions: scored visually after about 3 weeks vs untreated controls
Description: as §2, with “plants. Tables A1 to A16 below show the efficacies of selected compounds of the general formula (I) according to tables I.1 to I.50 on various harmful plants and an application rate corresponding to 80 g/ha or lower that were obtained by the aforementioned trial method.” for “plants.”

Viola tricolor [15] = test: as above
Description: as §2, with “plants. Tables A1 to A16 below show the efficacies of selected compounds of the general formula (I) according to tables I.1 to I.50 on various harmful plants and an application rate corresponding to 80 g/ha or lower that were obtained by the aforementioned trial method.” for “plants.”

Abutilon theophrasti [16] = test: as above
Description: as §2, with “plants. Tables A1 to A16 below show the efficacies of selected compounds of the general formula (I) according to tables I.1 to I.50 on various harmful plants and an application rate corresponding to 80 g/ha or lower that were obtained by the aforementioned trial method.” for “plants.”

Veronica persica [17] = test: as above
Description: as §2, with “plants. Tables A1 to A16 below show the efficacies of selected compounds of the general formula (I) according to tables I.1 to I.50 on various harmful plants and an application rate corresponding to 80 g/ha or lower that were obtained by the aforementioned trial method.” for “plants.”

Pharbitis purpurea [18] = test: as above
Description: as §2, with “plants. Tables A1 to A16 below show the efficacies of selected compounds of the general formula (I) according to tables I.1 to I.50 on various harmful plants and an application rate corresponding to 80 g/ha or lower that were obtained by the aforementioned trial method.” for “plants.”

Amaranthus retroflexus [19] = test: as above
Description: as §2, with “plants. Tables A1 to A16 below show the efficacies of selected compounds of the general formula (I) according to tables I.1 to I.50 on various harmful plants and an application rate corresponding to 80 g/ha or lower that were obtained by the aforementioned trial method.” for “plants.”

Matricaria inodora [20] = test: as above
Description: as §2, with “plants. Tables A1 to A16 below show the efficacies of selected compounds of the general formula (I) according to tables I.1 to I.50 on various harmful plants and an application rate corresponding to 80 g/ha or lower that were obtained by the aforementioned trial method.” for “plants.”

Polygonum convolvulus [21] = test: as above
Description: as §2, with “plants. Tables A1 to A16 below show the efficacies of selected compounds of the general formula (I) according to tables I.1 to I.50 on various harmful plants and an application rate corresponding to 80 g/ha or lower that were obtained by the aforementioned trial method.” for “plants.”

Matricaria inodora [22] = test: Herbicidal action pre-emergence, greenhouse pot test; conditions: application rate 320 g/ha
From the text: as §1, with “according to tables I.1 to I.50 on various harmful plants and an application rate corresponding to 320 g/ha or lower that were obtained by the” left out

Digitaria sanguinalis = test: Herbicidal action post-emergence, greenhouse pot test; conditions: application rate 20 g/ha
Alopecurus myosuroides [23] = test: Herbicidal action pre-emergence, greenhouse pot test; conditions: application rate 320 g/ha
From the text: as §1

Lolium rigidum [24] = test: Herbicidal action post-emergence, greenhouse pot test
Description: as §2, with “plants. Tables A1 to A16 below show the efficacies of selected compounds of the general formula (I) according to tables I.1 to I.50 on various harmful plants and an application rate corresponding to 80 g/ha or lower that were obtained by the aforementioned trial method.” for “plants.”

Compound	Setaria viridis (Efficacy in %) (Setaria viridis [1])	Stellaria media (Efficacy in %) (Stellaria media [2])	Echinochloa crus-galli (Efficacy in %) (Echinochloa crus-galli [3])	Hordeum murinum (Efficacy in %) (Hordeum murinum)	Lolium rigidum (Efficacy in %) (Lolium rigidum [4])	Viola tricolor (Efficacy in %) (Viola tricolor [5])	Abutilon theophrasti (Efficacy in %) (Abutilon theophrasti [6])	Veronica persica (Efficacy in %) (Veronica persica [7])	Zea mays (Efficacy in %) (Zea mays; application rate 5 g/ha)	Oryza sativa (Efficacy in %) (Oryza sativa; application rate 20 g/ha)	Digitaria sanguinalis (Efficacy in %) (Digitaria sanguinalis)	Setaria viridis (Efficacy in %) (Setaria viridis [11]; application rate 20 g/ha)	Echinochloa crus-galli (Efficacy in %) (Echinochloa crus-galli [13]; application rate 20 g/ha)	Viola tricolor (Efficacy in %) (Viola tricolor [15]; application rate 20 g/ha)	Abutilon theophrasti (Efficacy in %) (Abutilon theophrasti [16]; application rate 20 g/ha)	Veronica persica (Efficacy in %) (Veronica persica [17]; application rate 20 g/ha)	Pharbitis purpurea (Efficacy in %) (Pharbitis purpurea [18]; application rate 20 g/ha)	Amaranthus retroflexus (Efficacy in %) (Amaranthus retroflexus [19]; application rate 20 g/ha)	Matricaria inodora (Efficacy in %) (Matricaria inodora [20]; application rate 20 g/ha)	Polygonum convolvulus (Efficacy in %) (Polygonum convolvulus [21]; application rate 20 g/ha)	further results
CC(Sc1cc(-n2c(=O)cc(C(F)(F)F)n(C)c2=O)c(F)cc1Cl)C(=O)OCCC(N)=O (stereo not drawn) [I.1-151]	100%	100%	100%	80%	90%	100%	100%	100%	20%	10%	–	–	–	–	–	–	–	–	–	–	Avena fatua (Efficacy in %) (Avena fatua): 90%; Pharbitis purpurea (Efficacy in %) (Pharbitis purpurea [8]): 100%; Amaranthus retroflexus (Efficacy in %) (Amaranthus retroflexus [9]; application rate 80 g/ha): 100%; Polygonum convolvulus (Efficacy in %) (Polygonum convolvulus [10]): 100%; Triticum aestivum (Efficacy in %) (Triticum aestivum; application rate 80 g/ha): 20%; Setaria viridis (Efficacy in %) (Setaria viridis [11]; application rate 80 g/ha): 100%; Stellaria media (Efficacy in %) (Stellaria media [12]; application rate 80 g/ha): 90%; Echinochloa crus-galli (Efficacy in %) (Echinochloa crus-galli [13]; application rate 80 g/ha): 100%; Alopecurus myosuroides (Efficacy in %) (Alopecurus myosuroides [14]; application rate 80 g/ha): 90%; Viola tricolor (Efficacy in %) (Viola tricolor [15]; application rate 80 g/ha): 100%; Abutilon theophrasti (Efficacy in %) (Abutilon theophrasti [16]; application rate 80 g/ha): 100%; Veronica persica (Efficacy in %) (Veronica persica [17]; application rate 80 g/ha): 100%; Pharbitis purpurea (Efficacy in %) (Pharbitis purpurea [18]; application rate 80 g/ha): 100%; Amaranthus retroflexus (Efficacy in %) (Amaranthus retroflexus [19]; application rate 80 g/ha): 100%; Matricaria inodora (Efficacy in %) (Matricaria inodora [20]; application rate 80 g/ha): 100%; Polygonum convolvulus (Efficacy in %) (Polygonum convolvulus [21]; application rate 80 g/ha): 100%; Matricaria inodora (Efficacy in %) (Matricaria inodora [22]): 100%
CC(Sc1cc(-n2c(=O)cc(C(F)(F)F)n(C)c2=O)c(F)cc1Cl)C(=O)OCCC(=O)N(C)C (stereo not drawn) [I.1-231]	–	–	–	–	–	–	–	–	20%	–	100%	100%	100%	100%	100%	100%	100%	100%	100%	100%	Triticum aestivum (Efficacy in %) (Triticum aestivum; application rate 5 g/ha): 20%; Oryza sativa (Efficacy in %) (Oryza sativa; application rate 5 g/ha): 10%; Stellaria media (Efficacy in %) (Stellaria media [12]; application rate 20 g/ha): 100%
CC(Sc1cc(-n2c(=O)cc(C(F)(F)F)n(C)c2=O)c(F)cc1Cl)C(=O)OCCC(=O)O (stereo not drawn) [I.1-1]	100%	100%	100%	90%	100%	100%	100%	100%	10%	–	–	–	–	–	–	–	–	100%	–	–	Alopecurus myosuroides (Efficacy in %) (Alopecurus myosuroides [23]): 100%; Pharbitis purpurea (Efficacy in %) (Pharbitis purpurea [8]): 100%; Amaranthus retroflexus (Efficacy in %) (Amaranthus retroflexus [9]; application rate 20 g/ha): 100%; Polygonum convolvulus (Efficacy in %) (Polygonum convolvulus [10]): 100%; Triticum aestivum (Efficacy in %) (Triticum aestivum; application rate 80 g/ha): 20%; Setaria viridis (Efficacy in %) (Setaria viridis [11]; application rate 80 g/ha): 100%; Stellaria media (Efficacy in %) (Stellaria media [12]; application rate 80 g/ha): 100%; Echinochloa crus-galli (Efficacy in %) (Echinochloa crus-galli [13]; application rate 80 g/ha): 100%; Lolium rigidum (Efficacy in %) (Lolium rigidum [24]; application rate 80 g/ha): 80%; Viola tricolor (Efficacy in %) (Viola tricolor [15]; application rate 80 g/ha): 100%; Abutilon theophrasti (Efficacy in %) (Abutilon theophrasti [16]; application rate 80 g/ha): 100%; Veronica persica (Efficacy in %) (Veronica persica [17]; application rate 80 g/ha): 100%; Pharbitis purpurea (Efficacy in %) (Pharbitis purpurea [18]; application rate 80 g/ha): 100%; Matricaria inodora (Efficacy in %) (Matricaria inodora [20]; application rate 80 g/ha): 100%; Polygonum convolvulus (Efficacy in %) (Polygonum convolvulus [21]; application rate 80 g/ha): 100%; Matricaria inodora (Efficacy in %) (Matricaria inodora [22]): 100%
CCCOC(=O)CCOC(=O)C(CC)Sc1cc(-n2c(=O)cc(C(F)(F)F)n(C)c2=O)c(F)cc1Cl (stereo not drawn) [I.2-8]	–	–	–	–	–	–	–	–	–	0%	100%	100%	100%	100%	100%	100%	100%	100%	100%	100%	Zea mays (Efficacy in %) (Zea mays; application rate 20 g/ha): 0%; Triticum aestivum (Efficacy in %) (Triticum aestivum; application rate 20 g/ha): 0%; Stellaria media (Efficacy in %) (Stellaria media [12]; application rate 20 g/ha): 100%
CCC(Sc1cc(-n2c(=O)cc(C(F)(F)F)n(C)c2=O)c(F)cc1Cl)C(=O)OCC(C)(C)C(=O)OC (stereo not drawn) [I.2-32]	–	–	–	–	–	–	–	–	20%	0%	100%	100%	100%	100%	100%	100%	100%	100%	100%	100%	Triticum aestivum (Efficacy in %) (Triticum aestivum; application rate 5 g/ha): 20%; Alopecurus myosuroides (Efficacy in %) (Alopecurus myosuroides [14]; application rate 20 g/ha): 80%; Lolium rigidum (Efficacy in %) (Lolium rigidum [24]; application rate 20 g/ha): 80%
